From patent US6350742B1, “Compositions and methods for treating infections of the ear” (Carter-Wallace, Inc., priority 1998, dated 2002)

Key:
[1] = stability in the solid state; format: physicochemical; conditions: stored at ambient conditions
[2] = apparent partition coefficient between octanol and water; format: physicochemical; conditions: water buffered at pH 7.2
[3] = stability in aqueous solution; format: physicochemical; conditions: pre-packed and stored
[4] = test system: antibiotic resistant strains of H.pylori, staphylococci, streptococci, enterococci; test: activity against antibiotic resistant bacteria; conditions: enterococci and other bacterial and nosocomial infections
[5] = solubility in aqueous solutions and organic solvents; format: physicochemical
[6] = cited from earlier work
mice = conditions: cited from earlier work
[7] = test system: microbiota indigenous to the human ear; test: activity against microbiota of the ear
[8] = pH of a saturated solution in deionized water; format: physicochemical

stability in the solid state [1]: acceptable stability in the solid state
apparent partition coefficient between octanol and water [2]: approximately 0.13
stability in aqueous solution [3]: stored over relatively long periods
solubility ([5]; CHCl3): insoluble
solubility ([5]; Dilute HCl): soluble
solubility ([5]; Dilute NaOH): soluble
solubility ([5]; EtOH): sparingly soluble
solubility ([5]; Water, 20° C.): 1% at 20 °C
pH of saturated solution [8]: 7.4
SMILES: O=S1(=O)CCN(CN2CCS(=O)(=O)NC2)CN1 [Taurolidine, 4,4′-methylenebis (tetrahydro-1,2,4-thiadiazine)-1,1,1′,1′ tetraoxide]
effect on antibiotic resistant strains [4]: destroys antibiotic resistant strains
cumulative dose shown to be safe and well tolerated ([6]; cumulative doses): exceeding 300 g
systemic dose shown to be safe and well tolerated ([6]; systemic doses): exceeding 40 g/day
teratogenicity (mice): non-teratogenic
effect on growth of microbiota indigenous to the human ear [7]: eradicates or controls the growth
